Results published in publication PMC10747733, “N-Substituted 2-(Benzenosulfonyl)-1-Carbotioamide Derivatives Exert Antimicrobial and Cytotoxic Effects via Aldehyde Dehydrogenase Pathway: Synthesis, In Silico and In Vitro Studies” (Pharmaceuticals, 2023).
In brackets after ≈: the same amount, converted by molar mass. Entries after “also recorded” stand apart in the source; their conditions may differ.

Legend:
Candida spp. = assay: Broth microdilution, summary over reference Candida spp.; format: cell-based; details: reference Candida spp.
Description: (§1) Reference strains of microorganisms that came from American Type Culture Collection (ATCC) (Manassas, VA, USA) were used for this study. The representative Gram-positive bacteria were as follows: Staphylococcus aureus ATCC 25923, Staphylococcus aureus ATCC 29213, Staphylococcus aureus ATCC 43300, Staphylococcus epidermidis ATCC 12228, Enterococcus faecalis ATCC 29212, Micrococcus luteus ATCC 10240, Bacillus subtilis ATCC 6633 and Bacillus cereus ATCC 10876. While, those of Gram-negative bacteria were as follows: Bordetella bronchiseptica ATCC 4617, Escherichia coli ATCC 25922, Klebsiella pneumoniae ATCC 13883, Proteus mirabilis ATCC 12453, Salmonella Typhimurium ATCC 14028 and Pseudomonas aeruginosa ATCC 9027. Moreover, the following fungi belonging to yeasts were used: Candida albicans ATCC 10231, Candida albicans ATCC 2091, Candida parapsilosis ATCC 22019, Candida glabrata ATCC 90030 and Candida krusei ATCC 14243.
(§2) The new compounds WZ1–WZ4 were assayed for both antibacterial and antifungal activity using the broth microdilution method in accordance with the European Committee on Antimicrobial Susceptibility Testing (EUCAST) and Clinical and Laboratory Standards Institute (CLSI) guidelines. The microorganisms were grown at 35 °C for 18–24 h on appropriate media (nutrient agar and Sabouraud for bacteria and fungi, respectively) (BioMaxima S.A., Lublin, Poland). Next, microbial suspensions with an optical density of 0.5 McFarland standard scale (in sterile 0.85% NaCl) were prepared. In turn, the tested compounds were initially diluted at 50 mg/mL in dimethyl sulfoxide (DMSO) and the broth microdilution method was used to assess their minimum inhibitory concentrations (MICs). For these studies, selective broth Mueller-Hinton (MH) (BioMaxima S.A., Lublin, Poland) and RPMI (Roswell Park Memorial Institute) 1640 with MOPS (3-(N-Morpholino)propanesulfonic acid) (Sigma-Aldrich Chemicals, St. Louis, MO, USA) were used for bacteria and fungi, respectively. The antimicrobial effect of compounds WZ1–WZ4 was determined in the concentration range from 2000 to 0.98 µg/mL.
(§3) Then, the microbial suspensions were introduced into each well of the microplate and incubated for 18–24 h at 35 °C. […] The reference drugs ciprofloxacin or vancomycin (against bacteria) and nystatin (against fungi) (Sigma-Aldrich Chemicals, St. Louis, MO, USA) were also used. Next, the values of the minimum bactericidal concentration (MBC) and minimum fungicidal concentration (MFC) of WZ1–WZ4 were assessed. For this purpose, the cultures from each MIC determination well were transferred to a suitable solid medium and incubated under appropriate conditions. The lowest concentrations of compounds without microbial growth were read as MBC or MFC. The studies were performed in triplicate and representative data were gathered.
(§4) In turn, the MBC/MIC or MFC/MIC ratios were used to assess bactericidal/fungicidal (MBC/MIC or MFC/MIC ≤ 4) and bacteriostatic/fungistatic (MBC/MIC or MFC/MIC > 4) effect of these compounds [93].

[1] = system: Bordetella bronchiseptica ATCC 4617; assay: Broth microdilution antimicrobial activity; format: cell-based; details: for MBC / MIC: ATCC4617
Description: as §1, §2, §3, §4

[2] = system: Candida krusei ATCC 14243; assay: Broth microdilution antimicrobial activity; format: cell-based; details: for MFC / MIC: Pichia kudriavzevii; for MFC: ATCC14243, read-out: MFC; for MIC: ATCC14243, read-out: MIC
Description: as §1, §2, §3, §4

[3] = system: Bacillus subtilis ATCC 6633; assay: Broth microdilution antimicrobial activity; format: cell-based; details: for MBC / MIC: ATCC6633
Description: as §1, §2, §3, §4

[4] = system: Staphylococcus epidermidis ATCC 12228; assay: Broth microdilution antimicrobial activity; format: cell-based; details: for MBC / MIC: ATCC12228
Description: as §1, §2, §3, §4

[5] = system: Staphylococcus aureus ATCC 29213; assay: Broth microdilution antimicrobial activity; format: cell-based; details: for MBC / MIC: ATCC29213; for MBC / MIC / MBC/MIC: Staphylococcus aureus ATCC 29213
Description: as §1, §2, §3, §4

[6] = system: Escherichia coli ATCC 25922; assay: Broth microdilution antimicrobial activity; format: cell-based; details: for MBC / MIC: ATCC25922
Description: as §1, §2, §3, §4

[7] = system: Klebsiella pneumoniae ATCC 13883; assay: Broth microdilution antimicrobial activity; format: cell-based; details: for MBC / MIC: ATCC13883
Description: as §1, §2, §3, §4

[8] = system: Staphylococcus aureus ATCC 43300; assay: Broth microdilution antimicrobial activity; format: cell-based; details: for MBC / MIC: ATCC43300; for MBC / MIC / MBC/MIC: Staphylococcus aureus ATCC 43300
Description: as §1, §2, §3, §4

[9] = system: Staphylococcus aureus ATCC 25923; assay: Broth microdilution antimicrobial activity; format: cell-based; details: for MBC / MIC: ATCC25923
Description: as §1, §2, §3, §4

[10] = system: Enterococcus faecalis ATCC 29212; assay: Broth microdilution antimicrobial activity; format: cell-based; details: for MBC / MIC: ATCC29212; for MBC / MIC / MBC/MIC: Enterococcus faecalis ATCC 29212; for MBC: read-out: MBC; for MIC: read-out: MIC
Description: as §1, §2, §3, §4

[11] = system: Pseudomonas aeruginosa ATCC 9027; assay: Broth microdilution antimicrobial activity; format: cell-based; details: for MBC / MIC: ATCC9027
Description: as §1, §2, §3, §4

[12] = system: Candida albicans ATCC 2091; assay: Broth microdilution antimicrobial activity; format: cell-based; details: for MFC: ATCC2091, read-out: MFC; for MIC: ATCC2091, read-out: MIC
Description: as §1, §2, §3, §4

[13] = system: Candida parapsilosis ATCC 22019; assay: Broth microdilution antimicrobial activity; format: cell-based; details: for MFC / MIC: Lodderomyces parapsilosis; for MFC: ATCC22019, read-out: MFC; for MIC: ATCC22019, read-out: MIC
Description: as §1, §2, §3, §4

ALDH1A1 = ALDH1A1 concentration by ELISA in Du145 cells; format: cell-based, human
Method: The effect of compounds WZ1–WZ4 on ALDHA1 levels was investigated (Figure 10). The Du145, HepG2 and 769-P cell lines were treated with the calculated IC25 values for each compound.
Selected cell lines, viz HepG2, Du145 and 769-P, were seeded into 6-well plates and incubated for 24 h after seeding with compounds at a concentration equal to IC25. After a further 24 h or 48 h, cells were detached with trypsin and centrifuged. The resulting cell pellet was resuspended in 0.5 mL PBS. The samples were then sonicated, and protein was determined using the Bradford method (Bio-rad; Hercules, CA, USA). Samples were equilibrated to 10 mg/mL of protein, and ALDH1A1 was determined in the samples prepared in this way. ALDH1A1 determination was performed using an ELISA (SEE824Hu; Cloud Clone Corp., Katy, TX, USA), according to the manufacturer’s protocol.

## O=S(=O)(NNC(=S)NC1CCCCC1)c1ccccc1 [WZ1, 2-(Benzenesulfonyl)-N-Cyclohexylhydrazine-1-Carbothioamide]
Candida spp.
  anticandidal bioactivity class: no anticandidal bioactivity
[1]
  MBC/MIC: > 1
  MBC: > 2000 µg/mL
  MIC: > 2000 µg/mL
[2]
  MFC/MIC: > 1
  MFC: > 2000 µg/mL
  MIC: > 2000 µg/mL
[3]
  MBC/MIC: > 4
  MBC: > 2000 µg/mL
  MIC: 500 µg/mL (≈ 1.6 mM)
[4]
  MBC/MIC: > 8
  MBC: > 2000 µg/mL
  MIC: 250 µg/mL (≈ 0.798 mM)
[5]
  MBC: > 2000 µg/mL
  MIC: 500 µg/mL (≈ 1.6 mM)
  MBC/MIC: > 4
[6]
  MBC/MIC: > 1
  MBC: > 2000 µg/mL
  MIC: > 2000 µg/mL
[7]
  MBC/MIC: > 1
  MBC: > 2000 µg/mL
  MIC: > 2000 µg/mL
[8]
  MBC: > 2000 µg/mL
  MIC: 500 µg/mL (≈ 1.6 mM)
  MBC/MIC: > 4
[9]
  MBC/MIC: > 4
  MBC: > 2000 µg/mL
  MIC: 500 µg/mL (≈ 1.6 mM)
[10]
  MBC: > 2000 µg/mL
  MIC: 2000 µg/mL (≈ 6.38 mM)
  MBC/MIC: > 1
[11]
  MBC/MIC: > 1
  MBC: > 2000 µg/mL
  MIC: > 2000 µg/mL
[12]
  MFC/MIC: > 1
  MFC: > 2000 µg/mL
  MIC: > 2000 µg/mL
[13]
  MFC/MIC: > 1
  MFC: > 2000 µg/mL
  MIC: > 2000 µg/mL

## CCCCNC(=S)NNS(=O)(=O)c1ccccc1 [WZ2, 2-(Benzenesulfonyl)-N-Butylhydrazine-1-Carbothioamide]
ALDH1A1; compound at IC25, 24 h
  ALDH1A1 concentration compared to control: increased
ALDH1A1; compound at IC25, 48 h
  ALDH1A1 concentration compared to control: decrease; also recorded: significantly reduced
Candida spp.
  anticandidal bioactivity class: no anticandidal bioactivity
[1]
  MBC/MIC: > 1
  MBC: > 2000 µg/mL
  MIC: > 2000 µg/mL
[2]
  MFC/MIC: > 1
  MFC: > 2000 µg/mL
  MIC: 2000 µg/mL (≈ 6.96 mM)
[3]
  MBC/MIC: > 2
  MBC: > 2000 µg/mL
  MIC: 1000 µg/mL (≈ 3.48 mM)
[4]
  MBC/MIC: > 2
  MBC: > 2000 µg/mL
  MIC: 1000 µg/mL (≈ 3.48 mM)
[5]
  MBC: > 2000 µg/mL
  MIC: 2000 µg/mL (≈ 6.96 mM)
  MBC/MIC: > 1
[5]; S. aureus ATCC 29213
  bioactivity class: no bioactivity (no bioactivity (MIC > 1000 µg/mL))
[6]
  MBC/MIC: > 1
  MBC: > 2000 µg/mL
  MIC: > 2000 µg/mL
[7]
  MBC/MIC: > 1
  MBC: > 2000 µg/mL
  MIC: > 2000 µg/mL
[8]
  MBC: > 2000 µg/mL
  MIC: 2000 µg/mL (≈ 6.96 mM)
  MBC/MIC: > 1
[8]; S. aureus ATCC 43300
  bioactivity class: no bioactivity (no bioactivity (MIC > 1000 µg/mL))
[9]
  MBC/MIC: > 2
  MBC: > 2000 µg/mL
  MIC: 1000 µg/mL (≈ 3.48 mM)
[10]
  MBC: > 2000 µg/mL
  MIC: > 2000 µg/mL
  MBC/MIC: > 1
[10]; E. faecalis
  bioactivity class: no bioactivity (no bioactivity (MIC > 1000 µg/mL))
[11]
  MBC/MIC: > 1
  MBC: > 2000 µg/mL
  MIC: > 2000 µg/mL
[12]
  MFC/MIC: > 1
  MFC: > 2000 µg/mL
  MIC: 2000 µg/mL (≈ 6.96 mM)
[13]
  MFC/MIC: > 1
  MFC: > 2000 µg/mL
  MIC: 2000 µg/mL (≈ 6.96 mM)
